The values below come from patent US20030087887A1, “Novel fusidic acid derivatives” (priority 2001, published 2003).

Format in all cases: cell-based
Assay [1] has as its system Propionibacterium acnes FN33. Description: MIC, agar diffusion, Propionibacterium acnes FN33. The settings on record: Cutibacterium acnes, read-out: in vitro activities MIC. An excerpt: (§1) In vitro investigations have shown a relatively high potency of compounds of the invention against all bacteria including gram-positive and gram-negative strains (Staphylococci, Streptococci, Corynebacteriae, Mycobacteriae, Proteus, Propionibacterium, Pseudomonas, Neisseriae, E. coli) and fungal strains (Candida and Aspergillus). […] In addition, the studies of post-antibiotic effects point towards a strong bactericidal effect of the compounds of the invention. […] The potency of new polyaminated fusidic acid analogues is estimated by comparing the inhibition of growth of different microorganisms produced by known concentrations of the analogue to be examined and a reference compound such as fusidic acid. The microbiological assay set up is in agreement with the European Pharmacopoeia 3rd edition (1997). It is an agar diffusion method where the same volume of the tested solution is added to cavities in agar. The inhibition zones are function of the concentration of the fusidic acid analogue used. All assays are run with fusidic acid as reference substance.

For assay [2], the system named is Corynebacterium xerosis FF. Description: MIC, agar diffusion, Corynebacterium xerosis FF. The settings on record: read-out: in vitro activities MIC.
From the text: as §1

Another assay deals with S. aureus CJ234R. Description: MIC, agar diffusion, S. aureus CJ234R. The settings on record: Staphylococcus aureus, read-out: in vitro activities MIC.
From the text: as §1

The next assay has as its system E. coli HA165. Description: MIC, agar diffusion, E. coli HA165. To be noted: Escherichia coli, read-out: in vitro activities MIC.
From the text: as §1

The next assay concerns S. aureus CJ247. Description: MIC, agar diffusion, S. aureus CJ247. To be noted: Staphylococcus aureus, read-out: in vitro activities MIC.
From the text: as §1

For the next assay, the system named is S. aureus N6. Description: MIC, agar diffusion, S. aureus N6. To be noted: Staphylococcus aureus; S. aureus N6 (Fus. resistant); read-out: in vitro activities MIC.
From the text: as §1

The test system of assay [3] is Saccaromyces cervisiae ZZ7. Description: MIC, agar diffusion, Saccaromyces cervisiae ZZ7. To be noted: Saccharomyces cerevisiae, read-out: in vitro activities MIC.
From the text: as §1

The subject of another assay is S. aureus CJ234F. Description: MIC, agar diffusion, S. aureus CJ234F. To be noted: Staphylococcus aureus; S. aureus CJ234F (MRSA, Fus. resistant); read-out: in vitro activities MIC.
From the text: as §1

Assay [4] relates to Streptococcus pyogenes EC88. Description: MIC, agar diffusion, Streptococcus pyogenes EC88. To be noted: read-out: in vitro activities MIC.
From the text: as §1

A further assay concerns Asbergillus niger ZM35. Description: MIC, agar diffusion, Asbergillus niger ZM35. To be noted: Aspergillus niger, read-out: in vitro activities MIC.
From the text: as §1

The test system of another assay is S. epidermis CK5. Description: MIC, agar diffusion, S. epidermis CK5. To be noted: Staphylococcus epidermidis, read-out: in vitro activities MIC.
From the text: as §1

A further assay relates to S. aureus CJ200. Description: MIC, agar diffusion, S. aureus CJ200. The settings on record: Staphylococcus aureus, read-out: in vitro activities MIC.
From the text: as §1

Another assay relates to Candida albicans ZA. Description: MIC, agar diffusion, Candida albicans ZA. To be noted: read-out: in vitro activities MIC.
From the text: as §1

For assay [5], the system named is Pseudomonas aeruginosa BA17. Description: MIC, agar diffusion, Pseudomonas aeruginosa BA17. The settings on record: read-out: in vitro activities MIC.
From the text: as §1

Assay [6] deals with Streptococcus faecium EI19. Description: MIC, agar diffusion, Streptococcus faecium EI19. To be noted: Enterococcus faecium; Streptococcus faecium EI19 (Penicillin resistant); read-out: in vitro activities MIC.
From the text: as §1

Where [7] appears, read: S. aureus CJ234R (MRSA, Rifampicin resistant).

Structures are written as SMILES. In brackets after ≈: the same amount, converted by molar mass. Where two headings read alike, the source gives them in different places.

As for `CC(=O)O[C@H]1C[C@@]2(C)[C@@H](C[C@@H](O)[C@H]3[C@@]4(C)CC[C@@H](O)[C@@H](C)[C@@H]4CC[C@@]32C)/C1=C(\CCC=C(C)C)C(=O)O` [FA, fusidic acid], the MIC was 0.2 µg/mL (≈ 0.387 µM) in assay [1]; 0.1 µg/mL (≈ 0.194 µM) in [2]; 0.02 µg/mL (≈ 0.0387 µM) with S. aureus CJ234R (setting [7]); above 64 µg/mL with E. coli HA165; 0.02 µg/mL (≈ 0.0387 µM) with S. aureus CJ247; 16 µg/mL (≈ 31 µM) with S. aureus N6. Further, the minimum inhibitory concentration (MIC) in [3] was above 64 µg/mL; in the assay on S. aureus CJ234F, 16 µg/mL (≈ 31 µM); in [4], 16 µg/mL (≈ 31 µM); in the assay with Asbergillus niger ZM35, above 64 µg/mL; with S. epidermis CK5, 0.02 µg/mL (≈ 0.0387 µM); in the assay on S. aureus CJ200, 0.02 µg/mL (≈ 0.0387 µM). The MIC (in the assay on Candida albicans ZA; in assay [5]) was above 64 µg/mL each time.

Turning to `CC(=O)O[C@H]1C[C@@]2(C)C(C[C@@H](O)C3[C@@]4(C)CC[C@@H](OC(C)=O)[C@@H](C)C4CC[C@@]32C)[C@@H]1[C@H](CCCC(C)C)C(=O)NCCCNCCCCNCCCN` (stereo partly drawn) [Compound 173, 21-N-[3′-({4′-[(3′-aminopropyl)amino]butyl}amino)propyl]-3-OAc-17R,20S,24,25-tetrahydrofusid-21-amide], the MIC in [1] came out at 4 µg/mL (≈ 5.35 µM); in assay [2] it was 4 µg/mL (≈ 5.35 µM); with S. aureus CJ234R (MRSA), 1 µg/mL (≈ 1.34 µM); in the assay on E. coli HA165, 4 µg/mL (≈ 5.35 µM); in the assay with S. aureus CJ247, 4 µg/mL (≈ 5.35 µM); with S. aureus N6, 4 µg/mL (≈ 5.35 µM). For the same molecule, the MIC in [3] was determined as 4 µg/mL (≈ 5.35 µM); in the assay on S. aureus CJ234F, 4 µg/mL (≈ 5.35 µM); in assay [4], 4 µg/mL (≈ 5.35 µM); in the assay with Asbergillus niger ZM35, 125 µg/mL (≈ 167 µM); with S. epidermis CK5, 1 µg/mL (≈ 1.34 µM); in the assay with S. aureus CJ200, 4 µg/mL (≈ 5.35 µM). The figures for the MIC (in the assay with Candida albicans ZA; in assay [5]) were 125 µg/mL (≈ 167 µM) and 4 µg/mL (≈ 5.35 µM), respectively.

`CC(=O)NC[C@H]1CN(c2ccc(N3CCOCC3)c(F)c2)C(=O)O1` [Linezolid, reference compound]: the minimal inhibitory concentration (MIC) was found to be 1 µg/mL (≈ 2.96 µM) in assay [1]; 16 µg/mL (≈ 47.4 µM) in the assay with S. aureus CJ234R (setting [7]); 1 µg/mL (≈ 2.96 µM) in the assay on S. aureus CJ247; 1 µg/mL (≈ 2.96 µM) in the assay with S. aureus CJ234F; 4 µg/mL (≈ 11.9 µM) in assay [4]; 0.25 µg/mL (≈ 0.741 µM) with S. epidermis CK5. Besides, in the assay with S. aureus CJ200, the minimum inhibitory concentration (MIC) was 4 µg/mL (≈ 11.9 µM).

On to `CC(=O)O[C@H]1C[C@@]2(C)C(CCC3[C@@]4(C)CC[C@@H](O)[C@@H](C)C4CC[C@@]32C)[C@@H]1[C@H](CCCC(C)C)C(=O)NCCCNCCCN` (stereo partly drawn) [Compound 131], for which the MIC amounted to 4 µg/mL (≈ 6.47 µM) in assay [1]; 4 µg/mL (≈ 6.47 µM) in [6]; 4 µg/mL (≈ 6.47 µM) in assay [2]; 16 µg/mL (≈ 25.9 µM) with E. coli HA165; 4 µg/mL (≈ 6.47 µM) in the assay on S. aureus CJ247; 4 µg/mL (≈ 6.47 µM) in the assay on S. aureus N6. Further, the MIC was found to be 16 µg/mL (≈ 25.9 µM) in assay [3]; 4 µg/mL (≈ 6.47 µM) with S. aureus CJ234F; 4 µg/mL (≈ 6.47 µM) in assay [4]; 16 µg/mL (≈ 25.9 µM) in the assay on Asbergillus niger ZM35; 4 µg/mL (≈ 6.47 µM) in the assay on S. epidermis CK5; 4 µg/mL (≈ 6.47 µM) in the assay with S. aureus CJ200. Moreover, the MIC in the assay with Candida albicans ZA was 16 µg/mL (≈ 25.9 µM); in [5], 4 µg/mL (≈ 6.47 µM).

Regarding `C/C(=C\C(=O)OCCCCCCCCC(=O)O)C[C@@H]1OC[C@H](C[C@@H]2O[C@H]2[C@@H](C)[C@H](C)O)[C@@H](O)[C@H]1O` [Mupirocin, reference compound], the MIC in the assay on S. aureus CJ234R (setting [7]) stood at 1 µg/mL (≈ 2 µM); in the assay on S. aureus CJ247, 0.5 µg/mL (≈ 0.999 µM); in the assay on S. aureus CJ234F, 0.5 µg/mL (≈ 0.999 µM); in assay [4] it was 1 µg/mL (≈ 2 µM); with S. epidermis CK5, 0.04 µg/mL (≈ 0.0799 µM); in the assay with S. aureus CJ200 it was 1 µg/mL (≈ 2 µM).

With `CC(C)CCCC(C(=O)NCCCNCCCNCCCN)[C@@H]1CC[C@@]2(C)C1C[C@@H](O)C1[C@@]3(C)CC[C@@H](O)[C@@H](C)C3CC[C@@]12C` (stereo partly drawn) [Compound 145, 21-N-{[3′-({3′-[(3′-aminopropyl)amino]propyl}amino)propyl]}-16-desacetoxy-17R,20S,24,25-tetrahydrofusid-21-amide], the minimal inhibitory concentration (MIC) stood at 1 µg/mL (≈ 1.58 µM) in assay [1]; 4 µg/mL (≈ 6.32 µM) in assay [6]; 1 µg/mL (≈ 1.58 µM) in assay [2]; 4 µg/mL (≈ 6.32 µM) with S. aureus CJ234R (MRSA); 4 µg/mL (≈ 6.32 µM) in the assay on E. coli HA165; 1 µg/mL (≈ 1.58 µM) in the assay on S. aureus CJ247. Also, the MIC was 1 µg/mL (≈ 1.58 µM) in the assay on S. aureus N6; 4 µg/mL (≈ 6.32 µM) in [3]; 1 µg/mL (≈ 1.58 µM) with S. aureus CJ234F; 4 µg/mL (≈ 6.32 µM) in [4]; above 125 µg/mL in the assay with Asbergillus niger ZM35; 1 µg/mL (≈ 1.58 µM) in the assay with S. epidermis CK5. Also, the MIC with S. aureus CJ200 is 1 µg/mL (≈ 1.58 µM); in the assay with Candida albicans ZA it was above 125 µg/mL; in assay [5], 4 µg/mL (≈ 6.32 µM).

Consider `CC(=O)O[C@H]1C[C@@]2(C)C(C[C@@H](O)C3[C@@]4(C)CC[C@@H](OC(C)=O)[C@@H](C)C4CC[C@@]32C)[C@@H]1[C@H](CCCC(C)C)C(=O)NCCCNCCCNCCCN` (stereo partly drawn) [Compound 172, 21-N-[3′-({3′-[(3′-aminopropyl)amino]propyl}amino)propyl]-3-OAc-17R,20S,24,25-tetrahydrofusid-21-amide], for which the MIC in assay [1] turned out to be 1 µg/mL (≈ 1.36 µM); in assay [2], 4 µg/mL (≈ 5.46 µM); in the assay with S. aureus CJ234R (MRSA), 1 µg/mL (≈ 1.36 µM); with E. coli HA165, 4 µg/mL (≈ 5.46 µM); in the assay with S. aureus CJ247, 4 µg/mL (≈ 5.46 µM); in the assay on S. aureus N6, 4 µg/mL (≈ 5.46 µM). In addition, the MIC in [3] worked out at 64 µg/mL (≈ 87.3 µM); in the assay with S. aureus CJ234F, 4 µg/mL (≈ 5.46 µM); in [4], 4 µg/mL (≈ 5.46 µM); in the assay with Asbergillus niger ZM35, 64 µg/mL (≈ 87.3 µM); in the assay on S. epidermis CK5 it was 4 µg/mL (≈ 5.46 µM); in the assay with S. aureus CJ200 it was 4 µg/mL (≈ 5.46 µM). In addition, the minimal inhibitory concentration (MIC) with Candida albicans ZA turned out to be 64 µg/mL (≈ 87.3 µM); in [5], 4 µg/mL (≈ 5.46 µM).
